# Data taken from patent US10865208B2, “ATG7 inhibitors and the uses thereof” (Millennium Pharmaceuticals, Inc., priority 2016, dated 2020).
# pIC50: −log10 of the molar value.
# Target: recombinant human His-ATG7 enzyme (Homo sapiens (Human), UniProt O95352)
# Assay: ATG7 Enzyme Assay (HTRF/FRET, ATG3-GST and Flag-Gabarap)
# Format: biochemical
# Settings: for inhibition at 0.111 µM: Concentration 0.111 μM; for inhibition at 0.111 µM / inhibition at 0.123 µM: read-out: Percent Inhibition; for inhibition at 0.123 µM: Concentration 0.123 μM
# In short: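 HTRF read-out after 2 h at 24° C, using Eu-cryptate anti-Flag and XL-APC anti-GST antibodies in an EDTA stop buffer. The preceding 105 min, 24° C reaction (pH 7.5) held 10 μM ATP, 5 nM each ATG3-GST and Flag-Gabarap, and 0.15 nM human His-ATG7. Values are IC50 or percent inhibition at one concentration.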
# Chain of recombinant human His-ATG7 enzyme (O95352 whole entry): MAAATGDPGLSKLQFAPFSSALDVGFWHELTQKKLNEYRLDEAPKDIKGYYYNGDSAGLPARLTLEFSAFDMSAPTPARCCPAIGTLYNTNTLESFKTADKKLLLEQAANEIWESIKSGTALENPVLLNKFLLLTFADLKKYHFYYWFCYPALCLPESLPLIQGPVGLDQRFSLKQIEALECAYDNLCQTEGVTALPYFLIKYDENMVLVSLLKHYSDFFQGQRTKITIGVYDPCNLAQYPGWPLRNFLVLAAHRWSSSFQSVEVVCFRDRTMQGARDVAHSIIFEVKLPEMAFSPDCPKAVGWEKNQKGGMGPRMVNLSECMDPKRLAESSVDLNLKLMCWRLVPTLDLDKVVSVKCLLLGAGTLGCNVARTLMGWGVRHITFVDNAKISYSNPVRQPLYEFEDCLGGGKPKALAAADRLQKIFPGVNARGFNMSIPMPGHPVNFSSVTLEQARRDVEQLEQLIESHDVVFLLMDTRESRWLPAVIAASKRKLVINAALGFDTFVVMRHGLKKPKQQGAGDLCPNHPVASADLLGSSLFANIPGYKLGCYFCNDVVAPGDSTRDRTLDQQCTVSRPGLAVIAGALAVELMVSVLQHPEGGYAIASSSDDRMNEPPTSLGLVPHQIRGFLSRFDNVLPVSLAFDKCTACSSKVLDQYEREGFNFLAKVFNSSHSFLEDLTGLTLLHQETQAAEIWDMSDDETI
pIC50,inhibition at 0.111 µM [%],inhibition at 0.123 µM [%],Compound
7.30 to 7.70,80,,"Cn1cnc(Sc2nn([C@@H]3O[C@H](COS(N)(=O)=O)[C@@H](O)[C@@H]3F)c3ncnc(N)c23)c1 [Compound I-137, [(2R,3R,4S,5R)-5-{4-amino-3-[(1-methyl-1H-imidazol-4-yl)sulfanyl]-1H-pyrazolo[3,4-d]pyrimidin-1-yl}-4-fluoro-3-hydroxytetrahydrofuran-2-yl]methyl sulfamate]"
7.00 to 7.30,64,,"Nc1ncnc2c1c(Sc1cccnc1)nn2[C@@H]1O[C@H](COS(N)(=O)=O)[C@@H](O)[C@@H]1F [Compound I-138, {(2R,3R,4S,5R)-5-[4-amino-3-(pyridin-3-ylsulfanyl)-1H-pyrazolo[3,4-d]pyrimidin-1-yl]-4-fluoro-3-hydroxytetrahydrofuran-2-yl}methyl sulfamate]"
7.30 to 7.70,84,,"CC(C)Sc1nn([C@@H]2O[C@H](COS(N)(=O)=O)[C@@H](O)[C@@H]2F)c2ncnc(N)c12 [Compound I-139, {(2R,3R,4S,5R)-5-[4-amino-3-(isopropylsulfanyl)-1H-pyrazolo[3,4-d]pyrimidin-1-yl]-4-fluoro-3-hydroxytetrahydrofuran-2-yl}methyl Sulfamate]"
7.30 to 7.70,75,,CC1CC1CSc1nn([C@@H]2O[C@H](COS(N)(=O)=O)[C@@H](O)[C@@H]2F)c2ncnc(N)c12 (stereo partly shown) [Compound I-140]
7.30 to 7.70,,76,"Cc1cccc(Sc2nn([C@@H]3O[C@H](COS(N)(=O)=O)[C@@H](O)[C@@H]3F)c3ncnc(N)c23)c1 [Compound I-141, [(2R,3R,4S,5R)-5-{4-amino-3-[(3-methylphenyl)sulfanyl]-1H-pyrazolo[3,4-d]pyrimidin-1-yl}-4-fluoro-3-hydroxytetrahydrofuran-2-yl]methyl Sulfamate]"
7.00 to 7.30,57,,"Nc1ncnc2c1c(SC(F)(F)F)nn2[C@@H]1O[C@H](COS(N)(=O)=O)[C@@H](O)[C@@H]1F [Compound I-142, [(2R,3R,4S,5R)-5-{4-amino-3-[(trifluoromethyl)sulfanyl]-1H-pyrazolo[3,4-d]pyrimidin-1-yl}-4-fluoro-3-hydroxytetrahydrofuran-2-yl]methyl sulfamate]"
7.00 to 7.30,68,,"Nc1ncnc2c1c(Sc1ccc(C(F)(F)F)cn1)nn2[C@@H]1O[C@H](COS(N)(=O)=O)[C@@H](O)[C@@H]1F [Compound I-143, [(2R,3R,4S,5R)-5-(4-amino-3-{[5-(trifluoromethyl)pyridin-2-yl]sulfanyl}-1H-pyrazolo[3,4-d]pyrimidin-1-yl)-4-fluoro-3-hydroxytetrahydrofuran-2-yl]methyl sulfamate]"
7.30 to 7.70,74,,"Cn1cc(CSc2nn([C@@H]3O[C@H](COS(N)(=O)=O)[C@@H](O)[C@@H]3F)c3ncnc(N)c23)cn1 [Compound I-145, [(2R,3R,4S,5R)-5-(4-amino-3-{[(1-methyl-1H-pyrazol-4-yl)methyl]sulfanyl}-1H-pyrazolo[3,4-d]pyrimidin-1-yl)-4-fluoro-3-hydroxytetrahydrofuran-2-yl]methyl sulfamate]"
7.30 to 7.70,86,,"Nc1ncnc2c1c(Sc1ccc(Cl)cn1)nn2[C@@H]1O[C@H](COS(N)(=O)=O)[C@@H](O)[C@@H]1F [Compound I-146, [(2R,3R,4S,5R)-5-{4-amino-3-[(5-chloropyridin-2-yl)sulfanyl]-1H-pyrazolo[3,4-d]pyrimidin-1-yl}-4-fluoro-3-hydroxytetrahydrofuran-2-yl]methyl sulfamate]"
> 7.70,89,,"Nc1ncnc2c1c(SC1CCC1)nn2[C@@H]1O[C@H](COS(N)(=O)=O)[C@@H](O)[C@@H]1F [Compound I-147, {(2R,3R,4S,5R)-5-[4-amino-3-(cyclobutylsulfanyl)-1H-pyrazolo[3,4-d]pyrimidin-1-yl]-4-fluoro-3-hydroxytetrahydrofuran-2-yl}methyl sulfamate]"
> 7.70,83,,"Nc1ncnc2c1c(SCC1CCC1)nn2[C@@H]1O[C@H](COS(N)(=O)=O)[C@@H](O)[C@@H]1F [Compound I-148, [(2R,3R,4S,5R)-5-{4-amino-3-[(cyclobutylmethyl)sulfanyl]-1H-pyrazolo[3,4-d]pyrimidin-1-yl}-4-fluoro-3-hydroxytetrahydrofuran-2-yl]methyl sulfamate]"
6.30 to 7.00,46,,"Nc1ncnc2c1c(Sc1ccncc1)nn2[C@@H]1O[C@H](COS(N)(=O)=O)[C@@H](O)[C@@H]1F [Compound I-150, {(2R,3R,4S,5R)-5-[4-amino-3-(pyridin-4-ylsulfanyl)-1H-pyrazolo[3,4-d]pyrimidin-1-yl]-4-fluoro-3-hydroxytetrahydrofuran-2-yl}methyl Sulfamate]"
,76,,"Nc1ncnc2c1c(SCCO)nn2[C@@H]1O[C@H](COS(N)(=O)=O)[C@@H](O)[C@@H]1F [Compound I-151, [(2R,3R,4S,5R)-5-{4-amino-3-[(2-hydroxyethyl)sulfanyl]-1H-pyrazolo[3,4-d]pyrimidin-1-yl}-4-fluoro-3-hydroxytetrahydrofuran-2-yl]methyl Sulfamate]"
> 7.70,88,,"Cc1ccc(Sc2nn([C@@H]3O[C@H](COS(N)(=O)=O)[C@@H](O)[C@@H]3F)c3ncnc(N)c23)nc1 [Compound I-152, [(2R,3R,4S,5R)-5-{4-amino-3-[(5-methylpyridin-2-yl)sulfanyl]-1H-pyrazolo[3,4-d]pyrimidin-1-yl}-4-fluoro-3-hydroxytetrahydrofuran-2-yl]methyl sulfamate]"
7.00 to 7.30,58,,"N#Cc1cccc(Sc2nn([C@@H]3O[C@H](COS(N)(=O)=O)[C@@H](O)[C@@H]3F)c3ncnc(N)c23)c1 [Compound I-153, [(2R,3R,4S,5R)-5-{4-amino-3-[(3-cyanophenyl)sulfanyl]-1H-pyrazolo[3,4-d]pyrimidin-1-yl}-4-fluoro-3-hydroxytetrahydrofuran-2-yl]methyl sulfamate]"
7.00 to 7.30,64,,"COCCSc1nn([C@@H]2O[C@H](COS(N)(=O)=O)[C@@H](O)[C@@H]2F)c2ncnc(N)c12 [Compound I-154, [(2R,3R,4S,5R)-5-{4-amino-3-[(2-methoxyethyl)sulfanyl]-1H-pyrazolo[3,4-d]pyrimidin-1-yl}-4-fluoro-3-hydroxytetrahydrofuran-2-yl]methyl sulfamate]"
7.30 to 7.70,,75,"Nc1ncnc2c1c(SCc1ccccc1)nn2[C@@H]1O[C@H](COS(N)(=O)=O)[C@@H](O)[C@@H]1F [Compound I-155, {(2R,3R,4S,5R)-5-[4-amino-3-(benzylsulfanyl)-1H-pyrazolo[3,4-d]pyrimidin-1-yl]-4-fluoro-3-hydroxytetrahydrofuran-2-yl}methyl sulfamate]"
6.30 to 7.00,30,,"Nc1ncnc2c1c(Sc1nnc3ccccn13)nn2[C@@H]1O[C@H](COS(N)(=O)=O)[C@@H](O)[C@@H]1F [Compound I-156, {(2R,3R,4S,5R)-5-[4-amino-3-([1,2,4]triazolo[4,3-a]pyridin-3-ylsulfanyl)-1H-pyrazolo[3,4-d]pyrimidin-1-yl]-4-fluoro-3-hydroxytetrahydrofuran-2-yl}methyl sulfamate]"
7.00 to 7.30,56,,"Nc1ncnc2c1c(Sc1cccc(C(F)(F)F)c1)nn2[C@@H]1O[C@H](COS(N)(=O)=O)[C@@H](O)[C@@H]1F [Compound I-158, [(2R,3R,4S,5R)-5-(4-amino-3-{[3-(trifluoromethyl)phenyl]sulfanyl}-1H-pyrazolo[3,4-d]pyrimidin-1-yl)-4-fluoro-3-hydroxytetrahydrofuran-2-yl]methyl sulfamate]"
6.30 to 7.00,29,,"NC(=O)CSc1nn([C@H]2C[C@H](O)[C@@H](COS(N)(=O)=O)O2)c2ncnc(N)c12 [Compound I-159, [(2R,3S,5R)-5-{4-amino-3-[(2-amino-2-oxoethyl)sulfanyl]-1H-pyrazolo[3,4-d]pyrimidin-1-yl}-3-hydroxytetrahydrofuran-2-yl]methyl sulfamate]"
7.00 to 7.30,62,,"Nc1ncnc2c1c(Sc1ccc3c(c1)CCC3)nn2[C@H]1C[C@H](O)[C@@H](COS(N)(=O)=O)O1 [Compound I-160, {(2R,3S,5R)-5-[4-amino-3-(2,3-dihydro-1H-inden-5-ylsulfanyl)-1H-pyrazolo[3,4-d]pyrimidin-1-yl]-3-hydroxytetrahydrofuran-2-yl}methyl Sulfamate]"
7.00 to 7.30,59,,"Cc1ccc(Sc2nn([C@H]3C[C@H](O)[C@@H](COS(N)(=O)=O)O3)c3ncnc(N)c23)c(F)c1 [Compound I-161, [(2R,3S,5R)-5-{4-amino-3-[(2-fluoro-4-methylphenyl)sulfanyl]-1H-pyrazolo[3,4-d]pyrimidin-1-yl}-3-hydroxytetrahydrofuran-2-yl]methyl Sulfamate]"
6.30 to 7.00,50,,"Nc1ncnc2c1c(SCCO)nn2[C@H]1C[C@H](O)[C@@H](COS(N)(=O)=O)O1 [Compound I-162, [(2R,3S,5R)-5-{4-amino-3-[(2-hydroxyethyl)sulfanyl]-1H-pyrazolo[3,4-d]pyrimidin-1-yl}-3-hydroxytetrahydrofuran-2-yl]methyl Sulfamate]"
7.00 to 7.30,58,,"CC(C)(C)c1ccc(Sc2nn([C@H]3C[C@H](O)[C@@H](COS(N)(=O)=O)O3)c3ncnc(N)c23)cc1 [Compound I-163, [(2R,3S,5R)-5-{4-amino-3-[(4-tert-butylphenyl)sulfanyl]-1H-pyrazolo[3,4-d]pyrimidin-1-yl}-3-hydroxytetrahydrofuran-2-yl]methyl sulfamate]"
7.00 to 7.30,70,,"Nc1ncnc2c1c(SC1CCC1)nn2[C@H]1C[C@H](O)[C@@H](COS(N)(=O)=O)O1 [Compound I-164, {(2R,3S,5R)-5-[4-amino-3-(cyclobutylsulfanyl)-1H-pyrazolo[3,4-d]pyrimidin-1-yl]-3-hydroxytetrahydrofuran-2-yl}methyl sulfamate]"
